Results: PubChem BioAssay (NCI)
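Exposure lasted 48 hours, with cells grown in 96-well plates and compounds tested at five concentrations. GI50 = concentration required for 50% inhibition of growth. TGI is the concentration that stops growth completely.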

Tests used:
Assay in all cases: NCI-60 cell line screen, 48 h
RXF 393 renal = tested on: RXF 393 renal
OVCAR-8 ovarian = tested on: OVCAR-8 ovarian
SK-MEL-28 melanoma = tested on: SK-MEL-28 melanoma
COLO 205 colon = tested on: COLO 205 colon
NCI-H460 lung = tested on: NCI-H460 lung
ACHN renal = tested on: ACHN renal
SF-295 CNS = tested on: SF-295 CNS
MCF7 breast = tested on: MCF7 breast
HOP-92 NSCLC = tested on: HOP-92 NSCLC
MDA-MB-231 breast = tested on: MDA-MB-231 breast
MDA-MB-435 = tested on: MDA-MB-435
A498 renal = tested on: A498 renal
UACC-257 melanoma = tested on: UACC-257 melanoma
HCC-2998 colon = tested on: HCC-2998 colon
UACC-62 melanoma = tested on: UACC-62 melanoma
OVCAR-5 ovarian = tested on: OVCAR-5 ovarian
U251 CNS = tested on: U251 CNS
SW-620 colon = tested on: SW-620 colon
786-0 renal = tested on: 786-0 renal
HOP-62 NSCLC = tested on: HOP-62 NSCLC
CCRF-CEM leukemia = tested on: CCRF-CEM leukemia
UO-31 renal = tested on: UO-31 renal
HCT-15 colon = tested on: HCT-15 colon
SK-MEL-5 melanoma = tested on: SK-MEL-5 melanoma
LOX IMVI melanoma = tested on: LOX IMVI melanoma
SK-OV-3 ovarian = tested on: SK-OV-3 ovarian
NCI-H23 lung = tested on: NCI-H23 lung
SN12C renal = tested on: SN12C renal
CAKI-1 renal = tested on: CAKI-1 renal
RPMI-8226 leukemia = tested on: RPMI-8226 leukemia
OVCAR-3 ovarian = tested on: OVCAR-3 ovarian
SR leukemia = tested on: SR leukemia
HS 578T breast = tested on: HS 578T breast
HL-60(TB) leukemia = tested on: HL-60(TB) leukemia
NCI-H522 lung = tested on: NCI-H522 lung
M14 melanoma = tested on: M14 melanoma
SF-268 CNS = tested on: SF-268 CNS
MALME-3M melanoma = tested on: MALME-3M melanoma
HT29 colon = tested on: HT29 colon
DU-145 prostate = tested on: DU-145 prostate
BT-549 breast = tested on: BT-549 breast
SNB-75 CNS = tested on: SNB-75 CNS
T-47D breast = tested on: T-47D breast
K-562 leukemia = tested on: K-562 leukemia
HCT-116 colon = tested on: HCT-116 colon
SNB-19 CNS = tested on: SNB-19 CNS
A549 NSCLC = tested on: A549 NSCLC
SF-539 CNS = tested on: SF-539 CNS
NCI-H226 lung = tested on: NCI-H226 lung
SK-MEL-2 melanoma = tested on: SK-MEL-2 melanoma
PC-3 prostate = tested on: PC-3 prostate
KM12 colon = tested on: KM12 colon
MOLT-4 leukemia = tested on: MOLT-4 leukemia
TK-10 renal = tested on: TK-10 renal
NCI/ADR-RES ovarian = tested on: NCI/ADR-RES ovarian
IGROV1 ovarian = tested on: IGROV1 ovarian
OVCAR-4 ovarian = tested on: OVCAR-4 ovarian

In the case of `O=C(/C=C\c1ccnc2ccccc12)c1ccc([N+](=O)[O-])cc1`, the GI50 (RXF 393 renal) is reported as 12 µM, the TGI (RXF 393 renal) is reported as over 66 µM and the GI50 (OVCAR-8 ovarian) is reported as 12.4 µM. It also gave a TGI (OVCAR-8 ovarian) of over 100 µM, a GI50 (SK-MEL-28 melanoma) of 20.5 µM and a TGI (SK-MEL-28 melanoma) of over 83.2 µM. It also gave a GI50 (COLO 205 colon) of 23.1 µM, a TGI (COLO 205 colon) of over 100 µM and a GI50 (NCI-H460 lung) of over 68.1 µM. It also gave a TGI (NCI-H460 lung) of over 100 µM, a GI50 (ACHN renal) of 14.6 µM and a TGI (ACHN renal) of over 100 µM. It also gave a GI50 (SF-295 CNS) of 23.4 µM, a TGI (SF-295 CNS) of over 100 µM and a GI50 (MCF7 breast) of 1.64 µM. For the same compound, the TGI (MCF7 breast) was 3.54 µM, the GI50 (HOP-92 NSCLC) was 3.99 µM and the TGI (HOP-92 NSCLC) was over 65.3 µM. For the same compound, the GI50 (MDA-MB-231 breast) was 8.63 µM, the TGI (MDA-MB-231 breast) was 38.7 µM and the GI50 (MDA-MB-435) was 2.24 µM. It also gave a TGI (MDA-MB-435) of 6.55 µM, a GI50 (A498 renal) of 1.68 µM and a TGI (A498 renal) of over 100 µM. The GI50 (UACC-257 melanoma) was 8.8 µM, the TGI (UACC-257 melanoma) was over 60.7 µM and the GI50 (HCC-2998 colon) was 6.05 µM. It also gave a TGI (HCC-2998 colon) of 29.9 µM, a GI50 (UACC-62 melanoma) of 12.5 µM and a TGI (UACC-62 melanoma) of over 86.3 µM. The GI50 (OVCAR-5 ovarian) was over 60.6 µM, the TGI (OVCAR-5 ovarian) was over 100 µM and the GI50 (U251 CNS) was 10.6 µM. It also gave a TGI (U251 CNS) of 41.6 µM, a GI50 (SW-620 colon) of 1.99 µM and a TGI (SW-620 colon) of 4.79 µM. It also gave a GI50 (786-0 renal) of 16.9 µM, a TGI (786-0 renal) of over 89 µM and a GI50 (HOP-62 NSCLC) of over 38.4 µM. For the same compound, the TGI (HOP-62 NSCLC) was over 80.1 µM, the GI50 (CCRF-CEM leukemia) was 3.41 µM and the TGI (CCRF-CEM leukemia) was over 48.1 µM. For the same compound, the GI50 (UO-31 renal) was 4.99 µM, the TGI (UO-31 renal) was over 50.7 µM and the GI50 (HCT-15 colon) was 2.55 µM. For the same compound, the TGI (HCT-15 colon) was 9.2 µM, the GI50 (SK-MEL-5 melanoma) was 3.63 µM and the TGI (SK-MEL-5 melanoma) was 22.3 µM. For the same compound, the GI50 (LOX IMVI melanoma) was 1.83 µM, the TGI (LOX IMVI melanoma) was 3.75 µM and the GI50 (SK-OV-3 ovarian) was over 100 µM. The TGI (SK-OV-3 ovarian) was over 100 µM, the GI50 (NCI-H23 lung) was 5.54 µM and the TGI (NCI-H23 lung) was 59.5 µM. It also gave a GI50 (SN12C renal) of 16.1 µM, a TGI (SN12C renal) of over 64.2 µM and a GI50 (CAKI-1 renal) of 13.2 µM. The TGI (CAKI-1 renal) was over 100 µM, the GI50 (RPMI-8226 leukemia) was 1.87 µM and the TGI (RPMI-8226 leukemia) was 4.6 µM. For the same compound, the GI50 (OVCAR-3 ovarian) was 7.23 µM, the TGI (OVCAR-3 ovarian) was 43.2 µM and the GI50 (SR leukemia) was 2.28 µM. For the same compound, the TGI (SR leukemia) was 7.37 µM, the GI50 (HS 578T breast) was 27.3 µM and the TGI (HS 578T breast) was over 96 µM. It also gave a GI50 (HL-60(TB) leukemia) of 5.89 µM, a TGI (HL-60(TB) leukemia) of over 75.5 µM and a GI50 (NCI-H522 lung) of 15.2 µM. It also gave a TGI (NCI-H522 lung) of over 100 µM, a GI50 (M14 melanoma) of 4.94 µM and a TGI (M14 melanoma) of 19.4 µM. It also gave a GI50 (SF-268 CNS) of 21.6 µM, a TGI (SF-268 CNS) of over 82.8 µM and a GI50 (MALME-3M melanoma) of 57.2 µM. The TGI (MALME-3M melanoma) was over 100 µM, the GI50 (HT29 colon) was 2.36 µM and the TGI (HT29 colon) was 5.37 µM. It also gave a GI50 (DU-145 prostate) of 43.1 µM, a TGI (DU-145 prostate) of over 100 µM and a GI50 (BT-549 breast) of 11.2 µM. For the same compound, the TGI (BT-549 breast) was 27.4 µM, the GI50 (SNB-75 CNS) was over 75.4 µM and the TGI (SNB-75 CNS) was over 100 µM. It also gave a GI50 (T-47D breast) of 4.19 µM, a TGI (T-47D breast) of over 66.4 µM and a GI50 (K-562 leukemia) of 2.47 µM. For the same compound, the TGI (K-562 leukemia) was 18 µM, the GI50 (HCT-116 colon) was 1.59 µM and the TGI (HCT-116 colon) was 3.15 µM. The GI50 (SNB-19 CNS) was 14.8 µM, the TGI (SNB-19 CNS) was over 68.3 µM and the GI50 (A549 NSCLC) was over 41.1 µM. The TGI (A549 NSCLC) was over 100 µM, the GI50 (SF-539 CNS) was 6.82 µM and the TGI (SF-539 CNS) was 24.9 µM. For the same compound, the GI50 (NCI-H226 lung) was 6.35 µM, the TGI (NCI-H226 lung) was over 100 µM and the GI50 (SK-MEL-2 melanoma) was over 100 µM. The TGI (SK-MEL-2 melanoma) was over 100 µM, the GI50 (PC-3 prostate) was 8.62 µM and the TGI (PC-3 prostate) was 48.2 µM. For the same compound, the GI50 (KM12 colon) was 3 µM, the TGI (KM12 colon) was 11.1 µM and the GI50 (MOLT-4 leukemia) was 4.21 µM. The TGI (MOLT-4 leukemia) was over 83 µM, the GI50 (TK-10 renal) was 21.3 µM and the TGI (TK-10 renal) was over 100 µM. It also gave a GI50 (NCI/ADR-RES ovarian) of 8.68 µM, a TGI (NCI/ADR-RES ovarian) of over 100 µM and a GI50 (IGROV1 ovarian) of 16 µM. The TGI (IGROV1 ovarian) was over 79.6 µM, the GI50 (OVCAR-4 ovarian) was 3.71 µM and the TGI (OVCAR-4 ovarian) was over 100 µM.
